In patent US20230034359A1, “GENERATION OF MATURE KUPFFER CELLS” (AGENCY FOR SCIENCE, TECHNOLOGY AND RESEARCH, priority 2018, published 2023):
One block for each molecule: values may come before it.

Legend:
[1] = Alamar Blue cell viability, pHeps-pKCs co-culture; assay type: cell-based, human; conditions: human, pHeps in co-culture with pKCs
Protocol: (§1) For co-cultures, NL-Mφ, pKCs or iKCs were seeded at a density of 12,000 to 15,000 cells per well on Collagen I-coated 96-well plates. The cells were seeded in their respective media for 24 hours. Following cell attachment, medium was removed and iHeps or pHeps were seeded at a density of 2.5 times the density of the NL-Mφ/pKCs/iKCs in William's E media containing supplemental cocktail B. In some experiments, Advanced DMEM with supplement cocktail B (Media A) was used. The matching hepatocyte mono-culture controls were seeded in the same media and at the same density as the co-cultures.
(§2) Cell viability of differentiated hepatocytes was measured 24 hours after treatment with drugs using Alamar Blue® cell viability assay (Life Technologies) according to manufacturer's instructions. The following drugs were used for the cell viability assays: Acetaminophen, Trovafloxacin and Levofloxacin (all drugs from Sigma). Stock solutions of drugs were prepared in DMSO and then diluted in media to obtain desired working concentrations. Controls were treated with solvent alone (in absence of test compounds) and considered as 100% viability value.

[2] = Alamar Blue cell viability, pHeps mono-culture; assay type: cell-based, human; conditions: human, pHeps mono-culture
Protocol: as §1, §2

[3] = in vitro; assay type: cell-based, human; conditions: human
Protocol: as §1, §2

[4] = Alamar Blue cell viability, iHeps mono-culture; assay type: cell-based, human; conditions: human, iHeps mono-culture (stem-cell derived)
Protocol: as §1, §2

[5] = tested on: iKCs; test: LPS-induced cytokine production (ELISA) in iKCs; assay type: cell-based, human; design: TNFα production upon LPS stimulation: unit not given here
Protocol: (§3) Interleukin-6 (IL-6) and Tumor necrosis factor alpha (TNFα) levels in the media were measured using human IL-6 and TNFα enzyme-linked immunosorbent assay (ELISA) kits (Abcam) according to manufacturer's instructions.

[6] = tested on: pKCs; test: LPS-induced cytokine production (ELISA) in pKCs; assay type: cell-based, human
Protocol: as §3

[7] = tested on: NL-Mφ; test: LPS-induced cytokine production (ELISA) in NL-Mφ; assay type: cell-based, human
Protocol: as §3

[8] = tested on: pHeps; test: LPS-induced cytokine production (ELISA) in pHeps; assay type: cell-based, human
Protocol: as §3

[9] = tested on: KCs; conditions: reference [46], cited from earlier work
[10] = Alamar Blue cell viability, pHeps-iKCs co-culture; assay type: cell-based, human; conditions: human, pHeps in co-culture with iKCs; 100 μM, pHeps-iKCs co-culture
Protocol: as §1, §2

[11] = tested on: pHeps in co-culture with NL-Mφ; assay type: cell-based, human
Protocol: as §1, §2

[12] = tested on: pHeps in co-culture with pKCs; test: Alamar Blue cell viability, pHeps-pKCs co-culture; assay type: cell-based, human; conditions: Homo sapiens, 24 h
Protocol: as §1, §2

[13] = tested on: pHeps in co-culture with iKCs; test: Alamar Blue cell viability, pHeps-iKCs co-culture; assay type: cell-based, human; conditions: Homo sapiens, 24 h
Protocol: as §1, §2

[14] = tested on: pHeps mono-culture; test: Alamar Blue cell viability, pHeps mono-culture; assay type: cell-based, human; conditions: Homo sapiens, 24 h
Protocol: as §1, §2

[15] = tested on: iHeps in co-culture with iKCs; test: in vitro; assay type: cell-based, human
Protocol: as §1, §2

[16] = tested on: iHeps mono-culture; test: Alamar Blue cell viability, iHeps mono-culture; assay type: cell-based, human; conditions: Homo sapiens; iHeps mono-culture
Protocol: as §1, §2

[17] = tested on: iHeps-iKCs co-culture; test: Cytokine production (ELISA) in cholestasis model; assay type: cell-based, human; conditions: 100 ng/ml LPS and 10 μM CPZ, 24 hours
Protocol: as §3
(§4) Cells were incubated with 10 μM Fluorescein diacetate (FDA) and incubated for 30 minutes. The FDA-containing medium was removed and the cells were washed thrice with medium to remove any residual FDA. Images of bile acid accumulation were acquired using Olympus BX-DSU and quantified using Image J software and normalized to untreated control.

[18] = tested on: iHeps-iKCs co-culture; test: Bile acid accumulation (FDA); assay type: cell-based, human; conditions: 100 ng/ml LPS and 10 μM CPZ, 24 hours; versus untreated control
Protocol: as §4

[19] = tested on: BSEP, MDR1 and MRP1 mRNA in iHeps-iKCs co-culture; test: qPCR of bile transporter genes in cholestasis model; assay type: cell-based, human; conditions: CPZ treatment
Protocol: RNA was isolated using RNeasy Micro-kit (Qiagen, Hilden, Germany), RNA amount was determined using a NanoDrop™ ND-1000 Spectrophotometer (Life Technologies) and RNA was converted to cDNA using iScript cDNA synthesis kit (Bio-Rad Laboratories, Hercules, Calif., USA). 7000 Fast Real-Time PCR System (Applied Biosystems, Foster City, Calif., USA) was used for qPCR using primers commercially obtained from GeneCopoeia, Inc.
(Rockville, Md., USA). The expression levels of all marker genes were normalized to that of glyceraldehyde-3-phosphate dehydrogenase (GAPDH).
as §4

[20] = tested on: iHeps mono-culture; test: Cholestasis model, mono-culture control; assay type: cell-based, human; conditions: CPZ treatment
Protocol: as §4

[21] = 100 ng/ml LPS for 16 hours, versus no LPS

Molecule: C[C@H]1COc2c(N3CCN(C)CC3)c(F)cc3c(=O)c(C(=O)O)cn1c23 [Levofloxacin]
viability at 24 h [1]: > 90%
viability at 24 h [2]: > 90%
viability at 24 h [3]: > 90%
viability at 24 h [4]: > 90%

Molecule: lipopolysaccharide [LPS]
IL-6 production upon LPS stimulation [5]: 5200 pg/mL
TNFα production upon LPS stimulation [5]: 10,000
IL-6 level, LPS-treated ([5]; 100 ng/ml LPS for 16 hours): 5260 pg/million cells/24 h
fold increase in IL-6 production [5, 21]: 35 fold
fold increase in TNFα production [5, 21]: 33 folds
IL-6 production upon LPS stimulation [6]: 2018 pg/mL
IL-6 level, LPS-treated ([6]; 100 ng/ml LPS for 16 hours): 3420 pg/million cells/24 h
fold increase in IL-6 production [6, 21]: 25 folds
fold increase in TNFα production [6, 21]: 35 folds
fold increase in IL-6 production [7, 21]: 103 folds
fold increase in TNFα production ([7]; 100 ng/ml LPS, level without LPS not detectable): > 1000 folds
TNFα production upon LPS activation [8]: below detectable levels
TNFα production upon LPS stimulation ([9]; KCs): 4000 pg/mL
IL-6 production upon LPS stimulation [9]: 800 pg/mL

Molecule: N[C@@H]1[C@H]2CN(c3nc4c(cc3F)c(=O)c(C(=O)O)cn4-c3ccc(F)cc3F)C[C@@H]12 [Trovafloxacin]
viability at 24 h, 100 µM ([1]; 100 μM, pHeps-pKCs co-culture): 53.8%
viability at 24 h, 100 µM [10]: 55.8%
viability at 24 h, 100 µM ([2]; 100 μM): 73.8%
cell viability, co-culture versus mono-culture [11]: No difference in cell viability

Molecule: CC(=O)Nc1ccc(O)cc1 [APAP, Acetaminophen]
IC50 [12]: 12.5 mM
IC50 [13]: 25 mM
IC50 [14]: 45 mM
cell death, co-culture versus pHeps mono-culture [11]: No difference in cell death
cell viability, donor-matched co-culture versus mono-culture [15]: no significant difference
IC50 ([15]; Homo sapiens, read-out: IC50 (cell viability)): 27 mM
IC50 [16]: 54 mM

bile acid accumulation [18]: Significant bile acid accumulation
bile acid accumulation, cytokine production and reduction in transporter gene expression [20]: not in mono-culture
Molecule: CN(C)CCCN1c2ccccc2Sc2ccc(Cl)cc21 [CPZ, Chlorpromazine]
IL-6 production, fold compared to untreated control [17]: 4.5 fold
TNFα production, fold compared to untreated control [17]: 6.5 fold
mRNA expression of bile salt export pump (BSEP), fold change to untreated control [19]: 0.3±0.1 folds
mRNA expression of multidrug resistance (MDR1), fold change to untreated control [19]: 0.4±0.2 folds
mRNA expression of multidrug resistance-associated protein 1 (MRP1), fold change to untreated control [19]: 0.5±0.2 folds
